Measured values as given in US20160082133A1, “CHEMICAL EXCHANGE SATURATION TRANSFER (CEST) BASED MRI USING REPORTER GENES AND SUBSTRATES AND METHODS THEREOF” (The Johns Hopkins University, priority 2013, published 2016).
“Also recorded” adds a separate entry of the source.

How the values were obtained:
[1] = Quantification of exchange rates (QUESP, Bloch equation fitting); format: physicochemical; settings: 11.7 T, pH 7.4, 37° C.
Procedure: Exchange rates were quantified with the saturation power dependent CEST approach (QUESP) and Bloch equation fitting (McMahon et al., Magn. Res. Med. 2006, 55, 836). For each sample, the MTRasym was measured at the imino resonance frequency for CEST saturation fields of 43, 85, 128, 170, 213, 255, 340, and 426 Hz while the saturation pulse duration was kept constant at 4000 ms. The Bloch equations were then fit numerically to these MTRasym values using MATLAB (Mathworks), and the exchange rates (kex, s^−1) were determined from the fits. Errors (95% confidence limits) were estimated using the F statistic.

9L^HSV1-tk cells = assay: In vitro detection of accumulation with MR spectroscopy; format: cell-based, rat; settings: 9L^HSV1-tk cells incubated 3.5 h
Procedure: At least two distinctive peaks, typical to 2, appear in the spectra of the pure compound (black), a singlet at 1.22 ppm (6H of the 2 Methyls) and a triplet at 6.29 ppm (1H, the proton on 1′ carbon of the sugar). Both peaks appear in the lysate of cells incubated with the compound (red spectra) but not in the control (blue spectra). The samples were prepared using dual-phase extraction for simultaneous extraction of cellular lipids and water-soluble metabolite. Twenty five million cells (9L^HSV1-tk) were incubated with or without 2 for 3.5 h. After dual-phase extraction and lyophilizing of the water from the water-soluble fraction, the soluble intracellular contents were dissolved in D2O for the ^1H-NMR experiments. Fully relaxed ^1H-NMR spectra of the extracts were acquired on a Bruker 500 MHz scanner. The signal integrals of the typical functional groups of 2 (methyl groups —(CH3)2 at 1.22 ppm and of the CH on the C-1′ position of the sugar moiety at 6.29 ppm) and of the standard TSP (0 ppm) were determined. Then, the mM intracellular concentration of 2 was calculated as shown previously (Glunde, K. et al., Cancer Res 2005, 65, 11034) and found to be 0.37 mM.

[2] = test system: 9L^wt and 9L^HSV1-tk tumors; assay: Terminal transferase nick-end-labeling (TUNEL) of brain tumors; format: in vivo, mice; settings: 150 mg/kg, 6 hours post i.v. injection
Procedure: ApopTag® Plus In Situ Apoptosis Fluorescein Detection Kit (Millipore) was used for detecting degraded DNA fragments to evaluate apoptosis after the administration of compound 2. Six hours after i.v. administration of 2 (150 mg/kg body weight) mice were transcardially perfused with 10 mM PBS and 4% PFA for tissue fixation. Brains were fixed in 4% PFA overnight, cryopreserved in 30% sucrose, and followed by cryo-sectioning at 30 μm slices. Slices were post-fixed in ethanol: acetic acid (2:1) solution followed by the manufacture procedure for using the ApopTag® Plus In Situ Apoptosis Fluorescein Detection Kit (Millipore, […]).

[3] = In vitro CEST-MRI of thymidine analogues at 11.7 T; format: physicochemical; settings: pH 7.4, 37° C.
Procedure: All compounds were dissolved at a concentration of 20 mM in phosphate-buffered saline (PBS) (pH=7.4) and placed in microcapillaries, as described previously.^17 CESTMRI experiments were performed on a vertical 11.7 T scanner (Bruker Avance system) at 37° C. A modified RARE sequence (TR/TE=10 000/9.4 ms; RARE factor=16; 1 mm slice thickness; FOV=11×11 mm^2; matrix size=64×32; resolution=0.17×0.34 mm^2; and NA=2) including a magnetization transfer (MT) module ([…]) was used to acquire CEST-weighted images from −8 to +8 ppm with increments of 0.2 ppm around the water resonance, which was assigned to be at 0 ppm. Pixel-based B0 correction was used as described before using the same parameters as above except for TR=1500 ms and B1/tsat=21 Hz/500 ms, with a sweep range from −2 to +2 ppm (0.1 ppm steps). Data processing was performed using custom-written scripts in MATLAB (Mathworks). Mean CEST spectra were plotted from an ROI for each sample, after B0 correction. MTRasym=100×(S^−Aω−S^AωA/^‘−’0)/3 was computed at different offsets Aω.

293^HSV1-tk cells = assay: Cell viability assay (CellTiter-Blue); format: cell-based, human; settings: 0.5 mg/ml, 4 and 24 hours
Procedure: Cell viability assay was performed using CellTiter-Blue® Cell Viability Assay (Promega), which provides a fluorometric method for estimating the number of viable cells present in 96 well plate. HEK293FT cells transduced with the HSV1-tk (293^HSV1-tk) were plated in 96 well-plate (10,000 cells/well). Cells were incubated for a periods of 4 hours and 24 hours in the presence of ganciclovir (GCV, 0.5 mg/ml in cell medium), compound 2 (0.5 mg/ml in cell medium) and medium (as control). CellTiter-Blue® Reagent was added (20 μl/well) and plate was incubated for 3 hours at 37° C. Finally, fluorescence 560/590 nm was recorded and values obtained from probe containing wells (GCV or 2, N=4) were normalized to values of non-treated cells (control wells) to determine the % of viable cells after the incubation period.

HSV1-TK over m-TK = assay: Kinase assay with HEK-293FT cell extracts (293^HSV1-tk vs 293^wt); format: biochemical; settings: 5 μM substrate, 2 μL cell extract; specificity HSV1-TK over m-TK
Procedure: In a solid white 96-well plate, 5 μM substrate (dT, compounds 1, 2, or 3; N=4 for each substrate) and 20 μM ATP were dissolved in 48 μL of kinase reaction buffer (40 mM Tris; pH=7.5, 20 mM MgCl2, and 0.1 mg/mL BSA) followed by the addition of 2 μL of purified HSV1-TK to initiate the kinase reaction. Eight wells without substrate were included as the control reference. The plate was incubated at room temperature for 2 h, after which 50 μL of Kinase-Glo luciferase reagent (Kinase-Glo max luminescent kinase assay, Promega Inc.) was added. After […], the resulting luminescence values were recorded and used to quantify the residual ATP in the reaction. The relative phosphorylation (%) was then defined as the luminescence signal obtained after the enzymatic reaction (substrate+HSV1-TK+ATP) relative to the signal obtained from wells without substrate (HSV1-TK+ATP). For a phosphorylation assay performed on HEK-293FT lysates, 2 μL of cell extract (either ^293HSV1-tk or 293^wt cells) was used instead of purified HSV1-TK, and the assay was performed using 1 or 2 as the substrate according to the procedure described above.

[4] = at 5 ppm for 20 nM agent (so in the source)

SMILES: CC1(C)CN([C@H]2C[C@H](O)[C@@H](CO)O2)C(=O)NC1=O [Compound 2, 5-Methyl-5,6-dihydrothymidine]
- kex of the imino proton [1]: 1.7±0.3×10^3 s^−1
- kex, quantified exchange rates of imino and water protons ([1]; 5 ppm for 1-3, 6 ppm for dT): 1.7 ± 0.3 ×10^3 s^−1
- intracellular concentration by 1H-NMR (9L^HSV1-tk cells): 0.37 mM
- apoptosis (TUNEL staining) [2]: did not induce apoptosis; also recorded: do not induce apoptosis
- MTRasym (8.5 Hz) [3, 4]: 4%
- MTRasym (170 Hz) [3, 4]: 16%
- MTRasym (213 Hz) [3, 4]: 21%
- MTRasym (128 Hz) ([3]; at 5 ppm for 20 mM agent): 10%
- toxic effect on 293^HSV1-tk cells (293^HSV1-tk cells): did not show any toxic effect; also recorded: no toxic effect
- increase in phosphorylation with respect to control extract (293^wt), factor relative to that of 1 (HSV1-TK over m-TK): about 10
